# Laboratory results published in US20230135729A1, “COMPOUND WITH ANTI-SPORE ACTIVITY AND PHARMACEUTICAL COMPOSITION THEREOF” (priority 2020, published 2023).
# Where two headings read alike, the source gives them in different places.
# Columns and labels:
# Type in all cases: cell-based
# [1] = tested on: spores of ATCC 43255 strain; assay: Inhibition of germination of C. difficile spores (MIC), strain ATCC 43255; settings: Clostridioides difficile, ATCC43255, 1 h, read-out: MIC (minimum concentration that completely inhibits spore germination)
# Outline: (§1)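 Spores heat-activated for 30 min at 65° C and washed, then preincubated with compound (10 mM DMSO stock) in BHIS at 37° C. Germination was triggered with sodium taurocholate, and OD580 was read each minute for 60 min. Inhibition = 100% − germination rate, from final vs initial OD relative to germinant-only controls.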
# [2] = tested on: spores of ATCC BBA1870 strain; assay: Inhibition of germination of C. difficile spores (MIC), strain ATCC BBA1870; settings: Clostridioides difficile, ATCCBBA1870STRAIN, 1 h, read-out: MIC (minimum concentration that completely inhibits spore germination)
# Outline: as §1
# [3] = tested on: spores of ATCC 630 strain; assay: Inhibition of germination of C. difficile spores (MIC), strain ATCC 630; settings: Clostridioides difficile, ATCC630, 1 h, read-out: MIC (minimum concentration that completely inhibits spore germination)
# Outline: as §1
# [4] = strain 43255, sodium taurocholate as germinant, BHIS medium, 37° C., OD580 for 60 min
# [5] = strain 1870, sodium taurocholate as germinant, BHIS medium, 37° C., OD580 for 60 min
# [6] = strain 630, sodium taurocholate as germinant, BHIS medium, 37° C., OD580 for 60 min
Compound,"MIC [1, 4]","MIC [2, 5]","MIC [3, 6]",MIC [1],MIC [2],MIC [3]
CC(C)C(NC(=O)C[C@@H](C)[C@H]1CC[C@H]2[C@@H]3C(=O)C[C@@H]4CC(=O)CC[C@]4(C)[C@H]3CC[C@]12C)c1ccc(Br)s1 (stereo partly drawn) [Compound I-78],1 µM,0.5 µM,0.5 µM,–,–,–
CC(C)[C@@H](NC(=O)C[C@@H](C)[C@H]1CC[C@H]2[C@@H]3[C@H](O)C[C@@H]4C[C@H](O)CC[C@]4(C)[C@H]3C[C@H](O)[C@]12C)c1ccc(Cl)s1 [Compound I-146],16 µM,16 µM,16 µM,–,–,–
C[C@H](CC(=O)NCc1cccs1)[C@H]1CC[C@H]2[C@@H]3C(=O)C[C@@H]4C[C@H](O)CC[C@]4(C)[C@H]3CC[C@]12C [Compound I-14],4 µM,4 µM,4 µM,–,–,–
CCC(NC(=O)C[C@@H](C)[C@H]1CC[C@H]2[C@@H]3C[C@H](O)[C@@H]4C[C@H](O)CC[C@]4(C)[C@H]3CC[C@]12C)c1ccc(Cl)s1 (stereo partly drawn) [Compound I-126],2 µM,2 µM,1 µM,–,–,–
CC(C)[C@@H](NC(=O)C[C@@H](C)[C@H]1CC[C@H]2[C@@H]3[C@H](O)CC4=CC(=O)CC[C@]4(C)[C@H]3CC[C@]12C)c1ccc(Cl)s1 [Compound I-158-2],0.5 µM,0.5 µM,0.5 µM,–,–,–
CC(C)[C@H](NC(=O)C[C@@H](C)[C@H]1CC[C@H]2[C@@H]3[C@H](OS(=O)(=O)O)C[C@@H]4CC(=O)CC[C@]4(C)[C@H]3CC[C@]12C)c1ccc(Cl)s1 [Compound I-111],> 256 µM,> 256 µM,> 256 µM,–,–,–
C[C@H](CC(=O)NCc1ccco1)[C@H]1CC[C@H]2[C@@H]3C(=O)C[C@@H]4C[C@H](O)CC[C@]4(C)[C@H]3CC[C@]12C [Compound I-13],16 µM,16 µM,16 µM,–,–,–
C[C@H](CC(=O)NC(c1cccs1)C1CC1)[C@H]1CC[C@H]2[C@@H]3[C@H](O)C[C@@H]4CC(=O)CC[C@]4(C)[C@H]3CC[C@]12C (stereo partly drawn) [Compound I-85],0.5 µM,0.5 µM,0.5 µM,–,–,–
Cc1ccsc1C(C)NC(=O)C[C@@H](C)[C@H]1CC[C@H]2[C@@H]3C(=O)C[C@@H]4CC(=O)CC[C@]4(C)[C@H]3CC[C@]12C (stereo partly drawn) [Compound I-31],8 µM,8 µM,8 µM,–,–,–
CC(C)[C@H](NC(=O)C[C@@H](C)[C@H]1CC[C@H]2[C@@H]3C(=O)C[C@@H]4CC(=O)CC[C@]4(C)[C@H]3CC[C@]12C)c1cccs1 [Compound I-67],> 256 µM,> 256 µM,> 256 µM,–,–,–
CC[C@H](NC(=O)C[C@@H](C)[C@H]1CC[C@H]2[C@@H]3C(=O)C[C@@H]4CC(=O)CC[C@]4(C)[C@H]3CC[C@]12C)c1ccccc1 [Compound I-59],–,–,–,64 µM,128 µM,64 µM
CC(NC(=O)C[C@@H](C)[C@H]1CC[C@H]2[C@@H]3[C@H](O)C[C@@H]4C[C@H](O)CC[C@]4(C)[C@H]3C[C@H](O)[C@]12C)c1ccccc1 (stereo partly drawn) [Compound I-19],32 µM,64 µM,32 µM,–,–,–
CC(C)[C@@H](NC(=O)C[C@@H](C)[C@H]1CC[C@H]2[C@@H]3C(=O)C[C@@H]4CC(=O)CC[C@]4(C)[C@H]3CC[C@]12C)c1ccc(S(=O)(=O)O)s1 [Compound I-83],16 µM,16 µM,16 µM,–,–,–
C[C@H](CC(=O)NCc1cccs1)[C@H]1CC[C@H]2[C@@H]3[C@H](O)[C@H](O)[C@@H]4C[C@H](O)CC[C@]4(C)[C@H]3CC[C@]12C [Compound I-21],8 µM,8 µM,4 µM,–,–,–
CC[C@@H](NC(=O)C[C@@H](C)[C@H]1CC[C@H]2[C@@H]3[C@H](O)C[C@@H]4C[C@H](O)CC[C@]4(C)[C@H]3CC[C@]12C)c1ccc(Br)s1 [Compound I-138],1 µM,1 µM,1 µM,–,–,–
C[C@H](CC(=O)NCc1ccccc1)[C@H]1CC[C@H]2[C@@H]3[C@H](O)C[C@@H]4C[C@H](O)CC[C@]4(C)[C@H]3CC[C@]12C [Compound I-4],16 µM,32 µM,8 µM,–,–,–

Compound,"MIC [1, 4]","MIC [2, 5]","MIC [3, 6]",MIC [1],MIC [2],MIC [3]
CC(C)C(NC(=O)C[C@@H](C)[C@H]1CC[C@H]2[C@@H]3[C@H](OS(=O)(=O)O)C[C@@H]4CC(=O)CC[C@]4(C)[C@H]3CC[C@]12C)c1ccc(Cl)s1 (stereo partly drawn) [Compound I-110],0.5 µM,1 µM,1 µM,–,–,–
CC(C)[C@@H](NC(=O)C[C@@H](C)[C@H]1CC[C@H]2[C@@H]3CC[C@@H]4C[C@H](O)CC[C@]4(C)[C@H]3CC[C@]12C)c1ccc(Br)s1 [Compound I-148],16 µM,16 µM,16 µM,–,–,–
CC(C)[C@@H](NC(=O)C[C@@H](C)[C@H]1CC[C@H]2[C@@H]3[C@H](O)C[C@@H]4C[C@@H](O)CC[C@]4(C)[C@H]3CC[C@]12C)c1ccc(Cl)s1 [Compound I-144],2 µM,4 µM,2 µM,–,–,–
CC[C@@H](NC(=O)C[C@@H](C)[C@H]1CC[C@H]2[C@@H]3C(=O)C[C@@H]4CC(=O)CC[C@]4(C)[C@H]3CC[C@]12C)c1ccc(S(=O)(=O)O)s1 [Compound I-74],16 µM,16 µM,16 µM,–,–,–
CC(C)C(NC(=O)C[C@@H](C)[C@H]1CC[C@H]2[C@@H]3C(=O)C[C@@H]4CC(=O)CC[C@]4(C)[C@H]3CC[C@]12C)c1ccc(Cl)s1 (stereo partly drawn) [Compound I-75],0.5 µM,0.5 µM,0.5 µM,–,–,–
CC[C@@H](NC(=O)C[C@@H](C)[C@H]1CC[C@H]2[C@@H]3C(=O)CC4=CC(=O)C=C[C@]4(C)[C@H]3CC[C@]12C)c1ccc(Cl)s1 [Compound I-153],0.5 µM,0.5 µM,0.5 µM,–,–,–
CC(NC(=O)C[C@@H](C)[C@H]1CC[C@H]2[C@@H]3[C@H](O)[C@H](O)[C@@H]4C[C@H](O)CC[C@]4(C)[C@H]3CC[C@]12C)c1cccs1 (stereo partly drawn) [Compound I-22],8 µM,8 µM,8 µM,–,–,–
CC[C@H](NC(=O)C[C@@H](C)[C@H]1CC[C@H]2[C@@H]3C(=O)C[C@@H]4CC(=O)CC[C@]4(C)[C@H]3CC[C@]12C)c1ccc(Br)s1 [Compound I-71],16 µM,32 µM,16 µM,–,–,–
CCCCCCCC(=O)O[C@@H]1C[C@@H]2CC(=O)CC[C@]2(C)[C@H]2CC[C@]3(C)[C@@H]([C@H](C)CC(=O)N[C@H](CC)c4ccc(Br)s4)CC[C@H]3[C@H]12 [Compound I-184],128 µM,128 µM,128 µM,–,–,–
CC[C@@H](NC(=O)C[C@@H](C)[C@H]1CC[C@H]2[C@@H]3[C@H](OC(C)=O)CC4=CC(=O)C=C[C@]4(C)[C@H]3CC[C@]12C)c1ccc(Cl)s1 [I-161 -1],0.5 µM,0.5 µM,0.25 µM,–,–,–
CC[C@@H](NC(=O)C[C@@H](C)[C@H]1CC[C@H]2[C@@H]3[C@H](OC(C)=O)C[C@@H]4CC(=O)CC[C@]4(C)[C@H]3CC[C@]12C)c1ccc(Cl)s1 [Compound I-175],1 µM,1 µM,0.5 µM,–,–,–
CC[C@@H](NC(=O)C[C@@H](C)[C@H]1CC[C@H]2[C@@H]3[C@H](O)[C@H](O)[C@@H]4CC(=O)CC[C@]4(C)[C@H]3CC[C@]12C)c1cccs1 [Compound I-122],128 µM,128 µM,128 µM,–,–,–
CCC(NC(=O)C[C@@H](C)[C@H]1CC[C@H]2[C@@H]3[C@H](O)C[C@@H]4CC(=O)CC[C@]4(C)[C@H]3CC[C@]12C)c1ccc(S(=O)(=O)O)s1 (stereo partly drawn) [Compound I-92],32 µM,16 µM,16 µM,–,–,–
CC(C)[C@H](NC(=O)C[C@@H](C)[C@H]1CC[C@H]2[C@@H]3[C@H](O)C[C@@H]4CC(=O)CC[C@]4(C)[C@H]3CC[C@]12C)c1ccc(Br)s1 [Compound I-99],256 µM,> 256 µM,256 µM,–,–,–
CC(C)C(NC(=O)C[C@@H](C)[C@H]1CC[C@H]2[C@@H]3[C@H](O)[C@H](O)[C@@H]4C[C@H](O)CC[C@]4(C)[C@H]3CC[C@]12C)c1cccs1 (stereo partly drawn) [Compound I-119],32 µM,32 µM,32 µM,–,–,–
CC(=O)O[C@@H]1CC2=CC(=O)C=C[C@]2(C)[C@H]2CC[C@]3(C)[C@@H]([C@H](C)CC(=O)N[C@@H](c4ccc(Cl)s4)C(C)C)CC[C@H]3[C@H]12 [I-162 -1],0.5 µM,0.25 µM,0.5 µM,–,–,–
